From patent US20260109944A1, “Culture Method for Organoids” (Koninklijke Nederlandse Akademie Van Wetenschappen, priority 2014, published 2026)

How the values were obtained:
[1] = tested on: cAMP pathway; details: compared with 8-BR-cAMP and forskolin; cited from earlier work
[2] = tested on: human liver organoids; assay: Long-term expansion (passaging) of human liver organoids; format: cell-based
Experimental: Human liver cells isolated by collagenase dissociation were dissociated to single cell, counted and 3000 or 10000 cells were seeded per well in a 48 well plate. Mouse liver culture medium (ERFHNic) or medium supplemented with A8301 or A8301 and BMP7 or A8301 and BMP7 and Forskolin (FSK) was overlaid as indicated and organoids were allowed to grow. The cultures were split every week 7-10 days at a ratio of 1:4-1:6 dilution.
Human liver organoids were seeded in mouse medium supplemented with A8301 and with one of the CAMP activators as indicated in FIG. 4. Cholera toxin was used at a concentration of 100 ng/ml. Only the cultures that were treated with CAMP activators were able to be expanded >2 months (P8).
Liver cells were isolated by collagenase digestion as follows: tissue (0.5-1 cm^3) was minced, rinsed 2× with DMEM (Gibco) 1% FCS and incubated with the digestion solution (2.5 mg/ml collagenase D (Roche)+0.1 mg/ml DNase I (Sigma) in EBSS (Hyclone, Thermoscientific), for […] at 37° C. The digestion was stopped by adding cold DMEM 1% FCS and the suspension was then filtered through a 70 um Nylon cell strainer and spun 5 min at 300-400 g. The pellet was resuspended in DMEM 1% FCS and kept cold. Any material retained on the strainer was further digested for 10 min in Accutase (Innovative Cell Technologies) at 37° C. Then, the digestion was stopped and the cells were collected as before. The different fractions (collagenase and accutase) were mixed and washed with cold Advanced DMEM/F12 and spun at 300-400 g for 5 min. The cell pellet was mixed with Matrigel (BD bioscience) and 3000-10000 cells were seeded per well in a 48 well/plate. After Matrigel had solidified, culture medium was added. Culture media was based on AdDMEM/F12 (Invitrogen) supplemented with N2 and B27 without retinoic acid (both from Gibco), 1.25 mM N-Acetylcysteine (Sigma). 10 nM gastrin (Sigma) and the growth factors: 50 ng/ml EGF (Peprotech), 10% RSPO1 conditioned media (home-made), 100 ng/ml FGF10 (Peprotech). 25 ng/ml HGF, 10 mM Nicotinamide (Sigma), 5 uM TGF-beta inhibitor (A83.01 (Tocris)) and 10 uM FSK (Tocris). For the establishment of the culture, the first 3 days after isolation the medium was supplemented with 25 ng/ml Noggin (Peprotech), 30% Wnt CM (home-made prepared as described in (Barker and Huch 2010)), 10 uM Rock inhibitor (Y27632) and hES Cell cloning Recovery solution (Stemgent). Then, the medium was changed into a medium without Noggin, Wnt. Y27632, hES Cell cloning Recovery solution (Stemgent) while 25 ng/ml BMP7 (Peprotech) were supplemented on top. One week-10 days organoids were removed from the Matrigel, mechanically dissociated into small fragments, and transferred to fresh Matrigel. Passage was performed in 1:4-1:8 split ratio once per week for at least 6 months. […]

[3] = tested on: Lgr5 cells in human liver cultures; assay: Flow cytometry analysis of LGR5 positive cells; format: cell-based; details: cultured >4 weeks in the presence of FSK; not readily detected in absence; 2 donor cultures
Experimental: (§1) Lgr5 expression was analysed in cultures grown in our defined culture medium by immunofluorescence and flow cytometry analysis. (FIG. 5A) Confocal image of a human liver organoid showing that the organoids are formed by epithelial derived cells positive for EPCAM (blue). The stem cell marker Lgr5 (green) was restricted to a subset of cells within the organoid, while the Wnt target gene EPHB2 (red) was broadly expressed, but colocalized with LGR5 as expected. Staining was performed on single cells isolated from a culture that had been cultured for >4 weeks in the presence or absence of FSK. Only in the presence of FSK Lgr5 cells could be readily detected as a 1-3% of the culture population. Experiment was performed in 2 independent human liver donor cultures. (FIG. 5C) qPCR analysis of the expression of LGR5 in 4 week old cultures treated in the presence or absence of FSK.
Exponentially growing organoids were cultured for at least 5 days in the presence or absence of FSK. Then, organoids were dissociated into single cells using Accutase, resuspended in DMEM+2% FBS and incubated with Lgr5 antibody (AP2745d, Abgent) for 45 min. […] Cells were analyzed with a BD FACS Calibur (Becton-Dickinson); FSC: propidium iodide was used to label dead cells for exclusion and pulse-width gating to exclude cell doublets.

[4] = tested on: LGR5 expression in human liver cultures; assay: qPCR analysis of LGR5 expression; format: cell-based; details: 4 week old cultures, presence vs absence of FSK
Experimental: as §1

[5] = tested on: human liver organoid cultures (ALB, CYP3A4 expression); details: hepatocytes
[6] = culture medium supplemented with A8301 combined with FSK, split ratio 1:4-1:6 every 7-10 days

Molecule: C=C[C@@]1(C)CC(=O)[C@]2(O)[C@@]3(C)[C@@H](O)CCC(C)(C)[C@@H]3[C@H](OC(=O)CCN(C)C)[C@H](OC(C)=O)[C@@]2(C)O1.Cl [NKH477]
- relative potency as cAMP pathway activator [1]: generally more potent than 8-BR-CAMP and forskolin

Molecule: C=C[C@@]1(C)CC(=O)[C@]2(O)[C@@]3(C)[C@@H](O)CCC(C)(C)[C@@H]3[C@H](O)[C@H](OC(C)=O)[C@@]2(C)O1 [FSK, forskolin]
- number of passages the cultures were able to grow [2, 6]: > 18 passages
- time the cultures were able to grow [2, 6]: > 5 months
- Lgr5 cells as % of the culture population [3]: 1-3%
- LGR5 expression levels, upregulation upon treatment [4]: 2-3 ×

Molecule: Cc1cccc(-c2nn(C(=S)Nc3ccccc3)cc2-c2ccnc3ccccc23)n1 [A83-01, 3-(6-Methyl-2-pyridinyl)-N-phenyl-4-(4-quinolinyl)-1H-pyrazole-1-carbothioamide]
- long-term expansion outcome ([2]; medium supplemented with A8301 only (no FSK)): arrested proliferation after some weeks in culture

B1: BMP7: BMP pathway activator; induces the phosphorylation of SMAD1 and SMAD5 (protein, UniProt P18075 293-431, looked up)
Bone morphogenetic protein 7: STGSKQRSQNRSKTPKNQEALRMANVAENSSSDQRQACKKHELYVSFRDLGWQDWIIAPEGYAAYYCEGECAFPLNSYMNATNHAIVQTLVHFINPETVPKPCCAPTQLNAISVLYFDDSSNVILKKYRNMVVRACGCH
- long-term expansion outcome ([2]; medium supplemented with BMP7 and A8301 (no FSK)): arrested proliferation after some weeks in culture
- effect on expression of hepatocyte markers ALB and CYP3A4 [5]: slightly facilitated the expression of hepatocyte markers ALB and CYP3A4
